US9095161B2, “Preparation and use of methionylmethionine as feed additive for fish and crustaceans” (EVONIK DEGUSSA GmbH, priority 2008, dated 2015)

How the values were obtained:
[1] = Leaching characteristics from feed pellets under water; assay type: physicochemical; conditions: for dissolved out of feed pellets under water: 20.0 g pellets in 200 g water, 20° C.; for leaching compared with DL-methionine, MHA and calcium-MHA: compound feed pellets under water, identical conditions
Source text: The feed matrix used was a methionine-deficient feed mixture of conventional ingredients such as, for example, soybean meal, soybean oil, cornstarch, wheat meal, fish meal, cellulose, crystalline essential amino acids and minerals and vitamins as premixes. This mixture was then supplemented batchwise in 20 kg batches in each case with the methionine derivatives stated in table 5, with a 0.25% supplementation rate (based on sulfur equivalents), and was homogenized and then pelleted with steam treatment. As comparison with methionylmethionine (I), a pelleting experiment was carried out in each case with DL-methionine, MHA (methionine hydroxy analog) and calcium MHA. In addition, a control experiment was carried out by pelleting without addition of a methionine derivative (see table 5). The leaching characteristics of the diastereomers of methionylmethionine (I) from the feed pellets was then investigated under water. In this case, the dissolving out of methionylmethionine under water as a function of time, temperature, water composition (salt or fresh water) was determined. […] All the Erlenmeyer flask was subsequently agitated continuously with a laboratory shaker at a constant temperature of 20° C. Then, at defined time intervals, a sample of water was removed in each case and the content of the individual pairs of methionylmethionine diastereomers in the water was determined by HPLC (see table 7). For comparison, in each case the feed pellets supplemented with DL-methionine, MHA or calcium MHA were investigated under the same conditions and thus their leaching characteristics under water determined under the respective conditions (see FIG. 5 and table 7).

[2] = Stability during pelleting and steam treatment of the feed mixture; assay type: physicochemical; conditions: mixtures with natural protein and carbohydrate sources
Source text: The feed matrix used was a methionine-deficient feed mixture of conventional ingredients such as, for example, soybean meal, soybean oil, cornstarch, wheat meal, fish meal, cellulose, crystalline essential amino acids and minerals and vitamins as premixes. This mixture was then supplemented batchwise in 20 kg batches in each case with the methionine derivatives stated in table 5, with a 0.25% supplementation rate (based on sulfur equivalents), and was homogenized and then pelleted with steam treatment. As comparison with methionylmethionine (I), a pelleting experiment was carried out in each case with DL-methionine, MHA (methionine hydroxy analog) and calcium MHA. In addition, a control experiment was carried out by pelleting without addition of a methionine derivative (see table 5). In this case, the amino acid determination was based on EU method 98/64/EC. After extraction of the free amino acids and methionylmethionine (I), these were subsequently determined with the aid of an amino acid analyzer by post-column derivatization with ninhydrin (see table 6).

chickens = conditions: cited from earlier work
[3] = test system: enzyme cocktail of digestive and liver enzymes from carp
Protocol: The method for isolating the digestive enzymes was based on that of EID and MATTY (Aquaculture 1989, 79, 111-119). […] To isolate liver enzymes, the livers were isolated, homogenized and treated in analogy to the processing of the intestinal enzymes in example 22. The procedure for enzyme isolation from the pancreas was also analogous thereto.
D-Methionine was taken up in buffer solution, and the enzyme solution was added. A blank without enzyme solution was made up in each case as comparison and for estimating the purely chemical transformation rate. After 24 hours, a sample was taken and the composition was detected and quantified with the aid of calibrated HPLC.

Litopenaeus vannamei = conditions: feeding experiments; cited from earlier work

Compound	biotransformation of D-methionine to L-methionine [3]	dissolved out of feed pellets under water ([1]; Time 0) [%]	dissolved out of feed pellets under water ([1]; Time 5) [%]	dissolved out of feed pellets under water ([1]; Time 10) [%]	dissolved out of feed pellets under water ([1]; Time 15) [%]	dissolved out of feed pellets under water ([1]; Time 30) [%]	dissolved out of feed pellets under water ([1]; Time 60) [%]	dissolved out of feed pellets under water ([1]; Time 120) [%]	dissolved out of feed pellets under water ([1]; Time 210) [%]	leaching compared with DL-methionine, MHA and calcium-MHA [1]	stability during pelleting, extrusion and steam treatment [2]	stability during pelleting, extrusion and steam treatment ([2]; listed as DL-methionyl-DL-methionine (I))	stability during pelleting, extrusion and steam treatment ([2]; listed as methionylmethionine (I))	biological value (chickens)	maximum dissolved out of the feed pellets ([1]; after a residence time of 200 min) [%]	activity as feed additive compared with L-methionine (Litopenaeus vannamei)
CSCCC(O)C(=O)O (racemic) [MHA, rac-2-hydroxy-4-(methylthio)butanoic acid, reference compound]		6.0	12.8	20.8	28.8	50.5	75.4	94.1	99.9							
CSCCC(N)C(=O)NC(CCSC)C(=O)O (mixture of isomers) [LL/DD/LD/DL-I, DL-methionyl-DL-methionine]		1.5	2.0	3.2	3.6	5.4	9.5	12.3	17.0	distinctly less leaching	stable	absolutely stable	remained stable			
poly-L-methionine														lack of biological value		
CSCC[C@@H](N)C(=O)O [D-methionine]	may be transformed into L-methionine															
CSCCC(N)C(=O)NC(CCSC)C(=O)O (stereo not drawn) [DL/LD-I, DL/LD-methionylmethionine]		0.6	0.7	0.9	0.6	0.6	1.7	1.7	3.8	distinctly less leaching					≤ 5	
CSCCC(O)C(=O)[O-].CSCCC(O)C(=O)[O-].[Ca+2] (stereo not shown) [MHA-Ca, reference compound]		8.6	16.5	28.2	39.4	61.7	82.4	94.1	97.0							
CSCCC(N)C(=O)NC(CCSC)C(=O)O (stereo not shown) [LL/DD-I, DD/LL-methionylmethionine]		2.7	3.7	6.5	7.7	12.1	20.6	27.4	35.9	distinctly less leaching						
CSCCC(N)C(=O)O (racemic) [Methionine, DL-methionine]		4.0	12.0	16.0	24.0	39.9	59.9	79.8	87.8							same activity as L-methionine
